Assay results taken from patent publication US20260091026A1, “METHODS OF TREATING INFLAMMATORY DISEASES” (INTERLINE THERAPEUTICS, INC., priority 2023, published 2026).

Legend:
[1] = tested on: THP1-Dual cells, NF-κB pathway (SEAP); assay: THP-1 Dual cell SEAP assay (L18-MDP stimulated); type: cell-based; conditions: Homo sapiens, 10 ng/mL L18-MDP, 20-24 h, SEAP readout, read-out: IFNγ THP1 IC50
Method in brief: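 IC50 values come from non-linear fits of % inhibition of SEAP, measured as QUANTI-Blue optical density (620-655 nm, 2 h) in media-blanked supernatants. These were taken from THP1-Dual cells treated with compound for 30 min before overnight exposure to 10 ng/mL L18-MDP final at 37 °C.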

RIPK2 (KD)/XIAP (BIR2) = target: T1, RIPK2 (KD)/XIAP (BIR2) (Homo sapiens, UniProt O43353); assay: RIPK2-XIAP binding competition PPI assay (TR-FRET); conditions: for Emax: 50 nM of GSK583 = -100% activity, read-out: PPI Amax; for IC50: GST-RIPK2 / His-XIAP (BIR2)-avi, 120 min at 23° C.
T1 construct: made in house; host or cells: baculovirus-infected Sf9 cells
Method in brief: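 After 2 h at 23 °C, complex formation was read as the 665/520 nm emission ratio (337 nm excitation), scaled between uninhibited reaction and 50 nM GSK583. The mix held 1 nM human RIPK2 kinase fragment-GST, 25 nM His-tagged XIAP BIR2 and Tb/XL665 antibodies in pH 7.5 Tris buffer containing vanadate and glycerophosphate.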

T1 sequence (O43353 1-310): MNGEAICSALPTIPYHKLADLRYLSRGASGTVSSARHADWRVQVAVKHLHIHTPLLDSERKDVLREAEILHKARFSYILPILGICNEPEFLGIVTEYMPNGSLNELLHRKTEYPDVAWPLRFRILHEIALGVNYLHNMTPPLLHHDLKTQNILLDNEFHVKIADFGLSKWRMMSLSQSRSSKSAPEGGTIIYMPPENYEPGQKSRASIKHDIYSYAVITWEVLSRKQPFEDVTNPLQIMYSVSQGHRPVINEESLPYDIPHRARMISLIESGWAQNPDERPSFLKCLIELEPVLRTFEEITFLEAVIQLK

Row | Compound | IC50 [1] [nM] | Emax (RIPK2 (KD)/XIAP (BIR2)) [%] | IC50 (RIPK2 (KD)/XIAP (BIR2)) [nM]
1 | COc1cc2ncc(-c3cc(C(=O)NCc4ncn(C)n4)n(C)n3)n2cc1S(=O)(=O)C(C)(C)C [Example 81, 3-(6-(tert-butylsulfonyl)-7-methoxyimidazo[1,2-a]pyridin-3-yl)-1-methyl-N-((1-methyl-1H-1,2,4-triazol-3-yl)methyl)-1H-pyrazole-5-carboxamide] | > 2500 | ≥ 80 | 100 to 1000
2 | COc1cc2ncc(-c3cc(C(=O)NCc4ncccc4C#N)n(C)n3)n2cc1S(=O)(=O)C(C)(C)C [Example 82, 3-(6-(tert-butylsulfonyl)-7-methoxyimidazo[1,2-a]pyridin-3-yl)-N-((3-cyanopyridin-2-yl)methyl)-1-methyl-1H-pyrazole-5-carboxamide] | 500 to 2500 | ≥ 80 | 10 to 100
3 | COc1cc2ncc(-c3cc(C(=O)NCc4ccccc4C#N)n(C)n3)n2cc1S(=O)(=O)C(C)(C)C [Example 83, 3-(6-(tert-butylsulfonyl)-7-methoxyimidazo[1,2-a]pyridin-3-yl)-N-(2-cyanobenzyl)-1-methyl-1H-pyrazole-5-carboxamide] | > 2500 | ≥ 80 | 100 to 1000
4 | COc1cc2ncc(-c3cc(C(=O)NCc4nccs4)n(C)n3)n2cc1S(=O)(=O)C(C)(C)C [Example 84, 3-(6-(tert-butylsulfonyl)-7-methoxyimidazo[1,2-a]pyridin-3-yl)-1-methyl-N-(thiazol-2-ylmethyl)-1H-pyrazole-5-carboxamide] | 500 to 2500 | ≥ 80 | 10 to 100
5 | COc1cc2ncc(-c3cc(C(=O)NCc4cscn4)n(C)n3)n2cc1S(=O)(=O)C(C)(C)C [Example 85, 3-(6-(tert-butylsulfonyl)-7-methoxyimidazo[1,2-a]pyridin-3-yl)-1-methyl-N-(thiazol-4-ylmethyl)-1H-pyrazole-5-carboxamide] | 500 to 2500 | ≥ 80 | 10 to 100
6 | COc1cc2ncc(-c3cc(C(=O)NCc4ccsn4)n(C)n3)n2cc1S(=O)(=O)C(C)(C)C [Example 86, 3-(6-(tert-butylsulfonyl)-7-methoxyimidazo[1,2-a]pyridin-3-yl)-N-(isothiazol-3-ylmethyl)-1-methyl-1H-pyrazole-5-carboxamide] | 100 to 500 | ≥ 80 | 10 to 100
7 | COc1cc2ncc(-c3cc(C(=O)NCc4cc(C)sn4)n(C)n3)n2cc1S(=O)(=O)C(C)(C)C [Example 87, 3-(6-(tert-butylsulfonyl)-7-methoxyimidazo[1,2-a]pyridin-3-yl)-1-methyl-N-((5-methylisothiazol-3-yl)methyl)-1H-pyrazole-5-carboxamide] | 500 to 2500 | ≥ 80 | 10 to 100
8 | COc1cc2ncc(-c3cc(C(=O)NCc4nc(C)cs4)n(C)n3)n2cc1S(=O)(=O)C(C)(C)C [Example 88, 3-(6-(tert-butylsulfonyl)-7-methoxyimidazo[1,2-a]pyridin-3-yl)-1-methyl-N-((4-methylthiazol-2-yl)methyl)-1H-pyrazole-5-carboxamide] | 500 to 2500 | ≥ 80 | 100 to 1000
9 | COc1cc2ncc(-c3cc(C(=O)NCc4ncc(C)s4)n(C)n3)n2cc1S(=O)(=O)C(C)(C)C [Example 89, 3-(6-(tert-butylsulfonyl)-7-methoxyimidazo[1,2-a]pyridin-3-yl)-1-methyl-N-((5-methylthiazol-2-yl)methyl)-1H-pyrazole-5-carboxamide] | 100 to 500 | ≥ 80 | 10 to 100
10 | COc1cc2ncc(-c3cc(C(=O)NCc4ncsn4)n(C)n3)n2cc1S(=O)(=O)C(C)(C)C [Example 90, N-((1,2,4-thiadiazol-3-yl)methyl)-3-(6-(tert-butylsulfonyl)-7-methoxyimidazo[1,2-a]pyridin-3-yl)-1-methyl-1H-pyrazole-5-carboxamide] | 500 to 2500 | 55 to 80 | 10 to 100
11 | COc1cc2ncc(-c3cc(C(=O)NCc4nsc(C)n4)n(C)n3)n2cc1S(=O)(=O)C(C)(C)C [Example 91, 3-(6-(tert-butylsulfonyl)-7-methoxyimidazo[1,2-a]pyridin-3-yl)-1-methyl-N-((5-methyl-1,2,4-thiadiazol-3-yl)methyl)-1H-pyrazole-5-carboxamide] | > 2500 | 55 to 80 | 100 to 1000
12 | COc1cc2ncc(-c3cc(C(=O)NCc4nc(C)c(C)s4)n(C)n3)n2cc1S(=O)(=O)C(C)(C)C [Example 92, 3-(6-(tert-butylsulfonyl)-7-methoxyimidazo[1,2-a]pyridin-3-yl)-N-((4,5-dimethylthiazol-2-yl)methyl)-1-methyl-1H-pyrazole-5-carboxamide] | > 2500 | ≥ 80 | 100 to 1000
13 | COc1cc2ncc(-c3cc(C(=O)N[C@H](C)c4nccs4)n(C)n3)n2cc1S(=O)(=O)C(C)(C)C [Example 93, (R)-3-(6-(tert-butylsulfonyl)-7-methoxyimidazo[1,2-a]pyridin-3-yl)-1-methyl-N-(1-(thiazol-2-yl)ethyl)-1H-pyrazole-5-carboxamide] | 100 to 500 | ≥ 80 | 10 to 100
14 | C[C@@H](NC(=O)c1cc(-c2cnc3cc(OCCO)c(S(=O)(=O)C(C)(C)C)cn23)nn1C)c1nccs1 [Example 94, (R)-3-(6-(tert-butylsulfonyl)-7-(2-hydroxyethoxy)imidazo[1,2-a]pyridin-3-yl)-1-methyl-N-(1-(thiazol-2-yl)ethyl)-1H-pyrazole-5-carboxamide] | 100 to 500 | ≥ 80 | 10 to 100
15 | CCn1nc(-c2cnc3cc(OC)c(S(=O)(=O)C(C)(C)C)cn23)cc1C(=O)N[C@H](C)c1ccccn1 [Example 95, (R)-3-(6-(tert-butylsulfonyl)-7-methoxyimidazo[1,2-a]pyridin-3-yl)-1-ethyl-N-(1-(pyridin-2-yl)ethyl)-1H-pyrazole-5-carboxamide] | < 100 | ≥ 80 | < 10
16 | CCn1nc(-c2cnc3cc(OC)c(S(=O)(=O)C(C)(C)C)cn23)cc1C(=O)N[C@H](C)c1ncccn1 [Example 96, (R)-3-(6-(tert-butylsulfonyl)-7-methoxyimidazo[1,2-a]pyridin-3-yl)-1-ethyl-N-(1-(pyrimidin-2-yl)ethyl)-1H-pyrazole-5-carboxamide] | < 100 | ≥ 80 | < 10
17 | CCn1nc(-c2cnc3cc(OC)c(S(=O)(=O)C(C)(C)C)cn23)cc1C(=O)N[C@H](C)c1ncccc1F [Example 97, (R)-3-(6-(tert-butylsulfonyl)-7-methoxyimidazo[1,2-a]pyridin-3-yl)-1-ethyl-N-(1-(3-fluoropyridin-2-yl)ethyl)-1H-pyrazole-5-carboxamide] | < 100 | ≥ 80 | < 10
18 | CCn1nc(-c2cnc3cc(OC)c(S(=O)(=O)C(C)(C)C)cn23)cc1C(=O)N[C@H](C)c1nccs1 [Example 98, (R)-3-(6-(tert-butylsulfonyl)-7-methoxyimidazo[1,2-a]pyridin-3-yl)-1-ethyl-N-(1-(thiazol-2-yl)ethyl)-1H-pyrazole-5-carboxamide] | < 100 | ≥ 80 | < 10
19 | COc1cc2ncc(-c3cc(C(=O)N[C@H](C)c4ccccn4)n(C4CC4)n3)n2cc1S(=O)(=O)C(C)(C)C [Example 99, (R)-3-(6-(tert-butylsulfonyl)-7-methoxyimidazo[1,2-a]pyridin-3-yl)-1-cyclopropyl-N-(1-(pyridin-2-yl)ethyl)-1H-pyrazole-5-carboxamide] | < 100 | ≥ 80 | < 10
20 | COc1cc2ncc(-c3cc(C(=O)N[C@H](C)c4ncccn4)n(C4CC4)n3)n2cc1S(=O)(=O)C(C)(C)C [Example 100, (R)-3-(6-(tert-butylsulfonyl)-7-methoxyimidazo[1,2-a]pyridin-3-yl)-1-cyclopropyl-N-(1-(pyrimidin-2-yl)ethyl)-1H-pyrazole-5-carboxamide] | < 100 | ≥ 80 | < 10
21 | COc1cc2ncc(-c3cc(C(=O)N[C@H](C)c4ccccn4)n(C(C)C)n3)n2cc1S(=O)(=O)C(C)(C)C [Example 101, (R)-3-(6-(tert-butylsulfonyl)-7-methoxyimidazo[1,2-a]pyridin-3-yl)-1-isopropyl-N-(1-(pyridin-2-yl)ethyl)-1H-pyrazole-5-carboxamide] | < 100 | ≥ 80 | < 10
22 | COc1cc2ncc(-c3cc(C(=O)N[C@H](C)c4ncccn4)n(C(C)C)n3)n2cc1S(=O)(=O)C(C)(C)C [Example 102, (R)-3-(6-(tert-butylsulfonyl)-7-methoxyimidazo[1,2-a]pyridin-3-yl)-1-isopropyl-N-(1-(pyrimidin-2-yl)ethyl)-1H-pyrazole-5-carboxamide] | < 100 | ≥ 80 | < 10
23 | COc1cc2ncc(-c3cc(C(=O)N[C@H](C)c4ncccn4)n(C)n3)n2cc1S(=O)(=O)C(C)(C)C [Example 103, (R)-3-(6-(tert-butylsulfonyl)-7-methoxyimidazo[1,2-a]pyridin-3-yl)-1-methyl-N-(1-(pyrimidin-2-yl)ethyl)-1H-pyrazole-5-carboxamide] | 100 to 500 | ≥ 80 | 10 to 100
